Target: T1, K-Ras G12C (Homo sapiens, UniProt P01116, G12C)
T1 construct: This protein contained 188 amino acids in total, including an N-terminal 6-Histidine tag; made in house; host or cells: E. coli BL21
Assay: CAF assay (% CAF; method in Example 7, not in this part)
Assay type: binding
Settings: 10 uM compound, 1 h incubation

Row | SMILES | % CAF @ 10 uM, 1h [%]
1 | C=CC(=O)N1CCN(c2nc(=O)n3c4c(c(-c5ccc(F)cc5F)c(C(F)(F)F)cc24)SC[C@@H]3COCOC)[C@@H](C)C1 (atropisomer, axis not shown) [Example 548, (3S,10R)-7-((S)-4-acryloyl-2-methylpiperazin-1-yl)-10-(2,4-difluorophenyl)-3-((methoxymethoxy)methyl)-9-(trifluoromethyl)-2,3-dihydro-5H-[1,4]thiazino[2,3,4-ij]quinazolin-5-one] | 95.7
2 | C=CC(=O)N1CCN(c2nc(=O)n3c4c(c(-c5ccc(F)cc5F)c(C(F)(F)F)cc24)SC[C@@H]3COCOC)[C@@H](C)C1 (atropisomer, axis not shown) [Example 549, (3S,10S)-7-((S)-4-acryloyl-2-methylpiperazin-1-yl)-10-(2,4-difluorophenyl)-3-((methoxymethoxy)methyl)-9-(trifluoromethyl)-2H-[1,4]thiazino[2,3,4-ij]quinazolin-5(3H)-one] | 80.2
3 | C=CC(=O)N1CCN(c2nc(=O)n3c4c(c(-c5cc(Cl)c(F)cc5F)c(C(F)(F)F)cc24)SC[C@@H]3COCOC)[C@@H](C)C1 (atropisomer, axis not shown) [Example 552, (3S,10R)-7-((S)-4-acryloyl-2-methylpiperazin-1-yl)-10-(5-chloro-2,4-difluorophenyl)-3-((methoxymethoxy)methyl)-9-(trifluoromethyl)-2,3-dihydro-5H-[1,4]thiazino[2,3,4-ij]quinazolin-5-one] | 62.2
4 | C=CC(=O)N1CCN(c2nc(=O)n3c4c(c(-c5cc(Cl)c(F)cc5F)c(C(F)(F)F)cc24)SC[C@@H]3COCOC)[C@@H](C)C1 (atropisomer, axis not shown) [Example 553, (3S,10S)-7-((S)-4-acryloyl-2-methylpiperazin-1-yl)-10-(5-chloro-2,4-difluorophenyl)-3-((methoxymethoxy)methyl)-9-(trifluoromethyl)-2H-[1,4]thiazino[2,3,4-ij]quinazolin-5(3H)-one] | 37
5 | C=CC(=O)N1C[C@H](C)N(c2nc(=O)n3c4c(c(-c5cc(Cl)c(F)cc5F)c(C(F)(F)F)cc24)SC[C@@H]3COCCOC)C[C@H]1C (atropisomer, axis not shown) [Example 554, (3S,10S)-7-((2S,5R)-4-acryloyl-2,5-dimethylpiperazin-1-yl)-10-(5-chloro-2,4-difluorophenyl)-3-((2-methoxyethoxy)methyl)-9-(trifluoromethyl)-2H-[1,4]thiazino[2,3,4-ij]quinazolin-5(3H)-one] | 11.3
6 | C=CC(=O)N1C[C@H](C)N(c2nc(=O)n3c4c(c(-c5cc(Cl)c(F)cc5F)c(C(F)(F)F)cc24)SC[C@@H]3COCCOC)C[C@H]1C (atropisomer, axis not shown) [Example 555, (3S,10R)-7-((2S,5R)-4-acryloyl-2,5-dimethylpiperazin-1-yl)-10-(5-chloro-2,4-difluorophenyl)-3-((2-methoxyethoxy)methyl)-9-(trifluoromethyl)-2,3-dihydro-5H-[1,4]thiazino[2,3,4-ij]quinazolin-5-one] | 67.6
7 | C=CC(=O)N1C[C@H](C)N(c2nc(=O)n3c4c(c(-c5cc(Cl)c(F)cc5F)c(C(F)(F)F)cc24)SC[C@@H]3CN2CCN(CC(F)F)CC2)C[C@H]1C (atropisomer, axis not shown) [Example 556, (3S,10R)-7-((2S,5R)-4-acryloyl-2,5-dimethylpiperazin-1-yl)-10-(5-chloro-2,4-difluorophenyl)-3-((4-(2,2-difluoroethyl)piperazin-1-yl)methyl)-9-(trifluoromethyl)-2H-[1,4]thiazino[2,3,4-ij]quinazolin-5(3H)-one] | 73.1
8 | C=CC(=O)N1C[C@H](C)N(c2nc(=O)n3c4c(c(-c5cc(Cl)c(F)cc5F)c(C(F)(F)F)cc24)SC[C@@H]3CN2CCN(CC(F)F)CC2)C[C@H]1C (atropisomer, axis not shown) [Example 557, (3S,10S)-7-((2S,5R)-4-acryloyl-2,5-dimethylpiperazin-1-yl)-10-(5-chloro-2,4-difluorophenyl)-3-((4-(2,2-difluoroethyl)piperazin-1-yl)methyl)-9-(trifluoromethyl)-2H-[1,4]thiazino[2,3,4-ij]quinazolin-5(3H)-one] | 21.2
9 | C=CC(=O)N1[C@H](C)CN(c2nc(=O)n3c4c(c(-c5cc(Cl)c(F)cc5F)c(C(F)(F)F)cc24)SC[C@@H]3COC)C[C@@H]1C (atropisomer, axis not shown) [Example 563, (3S,10R)-7-((3S,5R)-4-acryloyl-3,5-dimethylpiperazin-1-yl)-10-(5-chloro-2,4-difluorophenyl)-3-(methoxymethyl)-9-(trifluoromethyl)-2,3-dihydro-5H-[1,4]thiazino[2,3,4-ij]quinazolin-5-one] | 93.9
10 | C=CC(=O)N1[C@H](C)CN(c2nc(=O)n3c4c(c(-c5cc(Cl)c(F)cc5F)c(C(F)(F)F)cc24)SC[C@@H]3COC)C[C@@H]1C (atropisomer, axis not shown) [Example 564, (3S,10S)-7-((3S,5R)-4-acryloyl-3,5-dimethylpiperazin-1-yl)-10-(5-chloro-2,4-difluorophenyl)-3-(methoxymethyl)-9-(trifluoromethyl)-2,3-dihydro-5H-[1,4]thiazino[2,3,4-ij]quinazolin-5-one] | 80.8
11 | C=CC(=O)N1[C@H](C)CN(c2nc(=O)n3c4c(c(-c5cc(Cl)c(F)cc5F)c(C(F)(F)F)cc24)SC[C@@H]3CN2CCC3(CC2)COC3)C[C@@H]1C (atropisomer, axis not shown) [Example 565, (3S,10S)-3-((2-oxa-7-azaspiro[3.5]nonan-7-yl)methyl)-7-((3S,5R)-4-acryloyl-3,5-dimethylpiperazin-1-yl)-10-(5-chloro-2,4-difluorophenyl)-9-(trifluoromethyl)-2,3-dihydro-5H-[1,4]thiazino[2,3,4-ij]quinazolin-5-one] | 48.3
12 | C=CC(=O)N1[C@H](C)CN(c2nc(=O)n3c4c(c(-c5cc(Cl)c(F)cc5F)c(C(F)(F)F)cc24)SC[C@@H]3CN2CCC3(CC2)COC3)C[C@@H]1C (atropisomer, axis not shown) [Example 566, (3S,10R)-3-((2-oxa-7-azaspiro[3.5]nonan-7-yl)methyl)-7-((3S,5R)-4-acryloyl-3,5-dimethylpiperazin-1-yl)-10-(5-chloro-2,4-difluorophenyl)-9-(trifluoromethyl)-2,3-dihydro-5H-[1,4]thiazino[2,3,4-ij]quinazolin-5-one] | 77.7
13 | C=CC(=O)N1C[C@H](C)N(c2nc(=O)n3c4c(c(-c5cccc6cnn(C)c56)c(Cl)cc24)SC[C@@H]3CN2CCN(CC(F)F)CC2)C[C@H]1C (atropisomer, axis not shown) [Example 569, (3S,10R)-7-((2S,5R)-4-acryloyl-2,5-dimethylpiperazin-1-yl)-9-chloro-3-((4-(2,2-difluoroethyl)piperazin-1-yl)methyl)-10-(1-methyl-1H-indazol-7-yl)-2,3-dihydro-5H-[1,4]thiazino[2,3,4-ij]quinazolin-5-one] | 93.4
14 | C=CC(=O)N1C[C@H](C)N(c2nc(=O)n3c4c(c(-c5cccc6cnn(C)c56)c(Cl)cc24)SC[C@@H]3CN2CCN(CC(F)F)CC2)C[C@H]1C (atropisomer, axis not shown) [Example 570, (3S,10S)-7-((2S,5R)-4-acryloyl-2,5-dimethylpiperazin-1-yl)-9-chloro-3-((4-(2,2-difluoroethyl)piperazin-1-yl)methyl)-10-(1-methyl-1H-indazol-7-yl)-2,3-dihydro-5H-[1,4]thiazino[2,3,4-ij]quinazolin-5-one] | 0
15 | C=CC(=O)N1[C@H](C)CN(c2nc(=O)n3c4c(c(-c5ccc(F)cc5F)c(C(F)(F)F)cc24)SC[C@@H]3CN2CCC3(CC2)COC3)C[C@@H]1C (atropisomer, axis not shown) [Example 576, (3S,10S)-3-(2-oxa-7-azaspiro[3.5]nonan-7-ylmethyl)-7-((3S,5R)-4-acryloyl-3,5-dimethylpiperazin-1-yl)-10-(2,4-difluorophenyl)-9-(trifluoromethyl)-2H-[1,4]thiazino[2,3,4-ij]quinazolin-5(3H)-one] | 80.5
16 | C=CC(=O)N1[C@H](C)CN(c2nc(=O)n3c4c(c(-c5ccc(F)cc5F)c(C(F)(F)F)cc24)SC[C@@H]3CN2CCC3(CC2)COC3)C[C@@H]1C (atropisomer, axis not shown) [Example 577, (3S)-3-(2-oxa-7-azaspiro[3.5]nonan-7-ylmethyl)-7-((3S,5R)-4-acryloyl-3,5-dimethylpiperazin-1-yl)-10-(2,4-difluorophenyl)-9-(trifluoromethyl)-2H-[1,4]thiazino[2,3,4-ij]quinazolin-5(3H)-one] | 74.8
17 | C=CC(=O)N1CCN(c2nc(=O)n3c4c(c(-c5ccc(F)cc5F)c(C(F)(F)F)cc24)SC[C@@H]3COC)CC1 (atropisomer, axis not shown) [Example 578, (3S,10R)-7-(4-acryloylpiperazin-1-yl)-10-(2,4-difluorophenyl)-3-(methoxymethyl)-9-(trifluoromethyl)-2,3-dihydro-5H-[1,4]thiazino[2,3,4-ij]quinazolin-5-one] | 98
18 | C=CC(=O)N1CCN(c2nc(=O)n3c4c(c(-c5ccc(F)cc5F)c(C(F)(F)F)cc24)SC[C@@H]3COC)CC1 (atropisomer, axis not shown) [Example 579, (3S,10S)-7-(4-acryloylpiperazin-1-yl)-10-(2,4-difluorophenyl)-3-(methoxymethyl)-9-(trifluoromethyl)-2,3-dihydro-5H-[1,4]thiazino[2,3,4-ij]quinazolin-5-one] | 96.9
19 | C=CC(=O)N1C[C@H](C)N(c2nc(=O)n3c4c(c(-c5ccc(F)cc5F)c(C(F)(F)F)cc24)SC[C@@H]3CN2CCN(C3CC3)CC2)C[C@H]1C (single isomer, unassigned) [Example 580] | 91.5
20 | C=CC(=O)N1C[C@H](C)N(c2nc(=O)n3c4c(c(-c5ccc(F)cc5F)c(C(F)(F)F)cc24)SC[C@@H]3CN2CCN(C3CC3)CC2)C[C@H]1C (single isomer, unassigned) [Example 581] | 97.4
